Values of other authors, collected in patent publication US20130195797A1, “HIGH POTENCY FORMULATIONS OF VX-950” (VERTEX PHARMACEUTICALS INCORPORATED, priority 2012, published 2013).

Test system: HCV
Settings: clinical trials

CCC[C@H](NC(=O)[C@@H]1[C@H]2CCC[C@H]2CN1C(=O)[C@@H](NC(=O)[C@@H](NC(=O)c1cnccn1)C1CCCCC1)C(C)(C)C)C(=O)C(=O)NC1CC1 [VX-950]
antiviral activity / effective therapy against HCV: has shown antiviral activity
